Experimental data: PubChem BioAssay (NCI)
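Test compounds were applied to cells in 96-well plates for 48 hours at 5 doses. The concentration for full growth arrest is given as TGI.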

What was measured:
Assay in all cases: inhibition of tumour cell growth, NCI panel, 48 h
SNB-75 CNS = tested on: SNB-75 CNS
HOP-62 NSCLC = tested on: HOP-62 NSCLC
CAKI-1 renal = tested on: CAKI-1 renal
LOX IMVI melanoma = tested on: LOX IMVI melanoma
SK-MEL-2 melanoma = tested on: SK-MEL-2 melanoma
NCI-H23 lung = tested on: NCI-H23 lung
UO-31 renal = tested on: UO-31 renal
ACHN renal = tested on: ACHN renal
SR leukemia = tested on: SR leukemia
MCF7 breast = tested on: MCF7 breast
M14 melanoma = tested on: M14 melanoma
OVCAR-5 ovarian = tested on: OVCAR-5 ovarian
RXF 393 renal = tested on: RXF 393 renal
K-562 leukemia = tested on: K-562 leukemia
T-47D breast = tested on: T-47D breast
PC-3 prostate = tested on: PC-3 prostate
NCI/ADR-RES ovarian = tested on: NCI/ADR-RES ovarian
UACC-62 melanoma = tested on: UACC-62 melanoma
U251 CNS = tested on: U251 CNS
SF-268 CNS = tested on: SF-268 CNS
COLO 205 colon = tested on: COLO 205 colon
IGROV1 ovarian = tested on: IGROV1 ovarian
UACC-257 melanoma = tested on: UACC-257 melanoma
HOP-92 NSCLC = tested on: HOP-92 NSCLC
SNB-19 CNS = tested on: SNB-19 CNS
HS 578T breast = tested on: HS 578T breast
OVCAR-4 ovarian = tested on: OVCAR-4 ovarian
MDA-MB-231 breast = tested on: MDA-MB-231 breast
NCI-H522 lung = tested on: NCI-H522 lung
EKVX NSCLC = tested on: EKVX NSCLC
MDA-N = tested on: MDA-N
OVCAR-8 ovarian = tested on: OVCAR-8 ovarian
BT-549 breast = tested on: BT-549 breast
A498 renal = tested on: A498 renal
A549 NSCLC = tested on: A549 NSCLC
786-0 renal = tested on: 786-0 renal
HCT-116 colon = tested on: HCT-116 colon
DU-145 prostate = tested on: DU-145 prostate
HT29 colon = tested on: HT29 colon
SF-295 CNS = tested on: SF-295 CNS
OVCAR-3 ovarian = tested on: OVCAR-3 ovarian
SK-OV-3 ovarian = tested on: SK-OV-3 ovarian
TK-10 renal = tested on: TK-10 renal
NCI-H460 lung = tested on: NCI-H460 lung
SW-620 colon = tested on: SW-620 colon
MOLT-4 leukemia = tested on: MOLT-4 leukemia
HL-60(TB) leukemia = tested on: HL-60(TB) leukemia
SK-MEL-5 melanoma = tested on: SK-MEL-5 melanoma
CCRF-CEM leukemia = tested on: CCRF-CEM leukemia
HCC-2998 colon = tested on: HCC-2998 colon
NCI-H226 lung = tested on: NCI-H226 lung
SF-539 CNS = tested on: SF-539 CNS
HCT-15 colon = tested on: HCT-15 colon
MALME-3M melanoma = tested on: MALME-3M melanoma
MDA-MB-435 = tested on: MDA-MB-435
RPMI-8226 leukemia = tested on: RPMI-8226 leukemia
SK-MEL-28 melanoma = tested on: SK-MEL-28 melanoma
KM12 colon = tested on: KM12 colon
SN12C renal = tested on: SN12C renal

## COc1cc2c(c(OC)c1OC)-c1ccc(SC)c(=O)cc1[C@@H](OC(=O)c1ccncc1)CC2
SNB-75 CNS
  TGI: > 100 µM
HOP-62 NSCLC
  TGI: > 100 µM
CAKI-1 renal
  TGI: 23.2 µM
LOX IMVI melanoma
  TGI: > 35.7 µM
SK-MEL-2 melanoma
  TGI: > 100 µM
NCI-H23 lung
  TGI: > 100 µM
UO-31 renal
  TGI: 52.6 µM
ACHN renal
  TGI: 31.2 µM
SR leukemia
  TGI: > 39.1 µM
MCF7 breast
  TGI: > 100 µM
M14 melanoma
  TGI: 56.7 µM
OVCAR-5 ovarian
  TGI: > 100 µM
RXF 393 renal
  TGI: > 82.9 µM
K-562 leukemia
  TGI: > 100 µM
T-47D breast
  TGI: > 100 µM
PC-3 prostate
  TGI: > 100 µM
NCI/ADR-RES ovarian
  TGI: < 0.01 µM
UACC-62 melanoma
  TGI: > 32.1 µM
U251 CNS
  TGI: > 100 µM
SF-268 CNS
  TGI: 49.3 µM
COLO 205 colon
  TGI: > 100 µM
IGROV1 ovarian
  TGI: > 46.8 µM
UACC-257 melanoma
  TGI: 24 µM
HOP-92 NSCLC
  TGI: > 100 µM
SNB-19 CNS
  TGI: > 100 µM
HS 578T breast
  TGI: > 56.5 µM
OVCAR-4 ovarian
  TGI: > 100 µM
MDA-MB-231 breast
  TGI: > 100 µM
NCI-H522 lung
  TGI: 39.5 µM
EKVX NSCLC
  TGI: > 100 µM
MDA-N
  TGI: > 100 µM
OVCAR-8 ovarian
  TGI: > 100 µM
BT-549 breast
  TGI: 22.8 µM
A498 renal
  TGI: 21.4 µM
A549 NSCLC
  TGI: > 100 µM
786-0 renal
  TGI: > 40.3 µM
HCT-116 colon
  TGI: > 35 µM
DU-145 prostate
  TGI: > 62.7 µM
HT29 colon
  TGI: < 0.01 µM
SF-295 CNS
  TGI: < 0.01 µM
OVCAR-3 ovarian
  TGI: 21.9 µM
SK-OV-3 ovarian
  TGI: 43.7 µM
TK-10 renal
  TGI: 55.3 µM
NCI-H460 lung
  TGI: 11.2 µM
SW-620 colon
  TGI: > 100 µM
MOLT-4 leukemia
  TGI: > 100 µM
HL-60(TB) leukemia
  TGI: > 100 µM
SK-MEL-5 melanoma
  TGI: 15.4 µM
CCRF-CEM leukemia
  TGI: 46.8 µM
HCC-2998 colon
  TGI: 11.6 µM
NCI-H226 lung
  TGI: < 0.01 µM
SF-539 CNS
  TGI: < 0.01 µM

## C[C@H]1CC[C@@H]2[C@@H](C)C[C@H]3[C@@H]4C(C)(C)OC(=O)[C@]4(C)C(=O)[C@@]23C1=O
SNB-75 CNS
  TGI: > 100 µM
HOP-62 NSCLC
  TGI: > 100 µM
CAKI-1 renal
  TGI: > 100 µM
LOX IMVI melanoma
  TGI: > 100 µM
HCT-15 colon
  TGI: > 100 µM
NCI-H23 lung
  TGI: > 100 µM
ACHN renal
  TGI: > 100 µM
MCF7 breast
  TGI: > 100 µM
M14 melanoma
  TGI: > 100 µM
OVCAR-5 ovarian
  TGI: > 100 µM
K-562 leukemia
  TGI: > 100 µM
T-47D breast
  TGI: 68.1 µM
NCI/ADR-RES ovarian
  TGI: > 100 µM
UACC-62 melanoma
  TGI: > 100 µM
SF-268 CNS
  TGI: > 100 µM
COLO 205 colon
  TGI: > 100 µM
MALME-3M melanoma
  TGI: > 100 µM
MDA-MB-435
  TGI: > 100 µM
IGROV1 ovarian
  TGI: > 100 µM
UACC-257 melanoma
  TGI: > 100 µM
HOP-92 NSCLC
  TGI: > 100 µM
SNB-19 CNS
  TGI: > 100 µM
HS 578T breast
  TGI: > 100 µM
OVCAR-4 ovarian
  TGI: > 100 µM
MDA-MB-231 breast
  TGI: > 100 µM
NCI-H522 lung
  TGI: > 100 µM
EKVX NSCLC
  TGI: > 100 µM
MDA-N
  TGI: > 100 µM
OVCAR-8 ovarian
  TGI: > 100 µM
RPMI-8226 leukemia
  TGI: > 100 µM
BT-549 breast
  TGI: > 100 µM
A498 renal
  TGI: > 100 µM
A549 NSCLC
  TGI: > 100 µM
786-0 renal
  TGI: > 100 µM
SK-MEL-28 melanoma
  TGI: > 100 µM
HCT-116 colon
  TGI: > 100 µM
DU-145 prostate
  TGI: > 100 µM
HT29 colon
  TGI: > 100 µM
SF-295 CNS
  TGI: > 100 µM
KM12 colon
  TGI: > 100 µM
OVCAR-3 ovarian
  TGI: > 100 µM
SK-OV-3 ovarian
  TGI: > 100 µM
TK-10 renal
  TGI: > 100 µM
NCI-H460 lung
  TGI: > 100 µM
SW-620 colon
  TGI: > 100 µM
MOLT-4 leukemia
  TGI: > 100 µM
SN12C renal
  TGI: > 100 µM
HL-60(TB) leukemia
  TGI: > 100 µM
SK-MEL-5 melanoma
  TGI: > 100 µM
CCRF-CEM leukemia
  TGI: > 100 µM
HCC-2998 colon
  TGI: > 100 µM
NCI-H226 lung
  TGI: > 100 µM
SF-539 CNS
  TGI: > 100 µM
